Measurements reported in ChEMBL document CHEMBL5108004, “An auristatin-based peptide-drug conjugate targeting Kita-Kyushu lung cancer antigen 1 for precision chemoradiotherapy in gastric cancer” (Eur J Med Chem, 2022).
Activity calls are given as the source filed them. No cut-off for these calls is given here. Where a SMILES comes first, the peptide text is derived from it. [ ]: non-standard residue; d: D form. The star is where a group is joined. Dolaproine = CO[C@@H]([C@@H]1CCCN1)[C@@H](C)C(=O)O; Dil = CC[C@H](C)[C@H](NC)[C@@H](CC(=O)O)OC; X1 = C[C@@H](N*)[C@@H](O)c1ccccc1; NMeV = CN[C@H](C(=O)O)C(C)C

Key:
NUGC-4 [1] = assay: Induction of mitotic arrest in KK-LC-1-positive human NUGC-4 cells xenografted in nude mouse assessed as number of pHH3-positive nuclei in tumor at 4 nmol, iv administered as single dose and measured after 24 hrs by pHH3 immunohistochemical staining method relative to control; format: functional
MKN-45 [2] = assay: Cytotoxicity against KK-LC-1-positive human MKN-45 cells incubated for 72 hrs by CCK-8 assay; format: functional, cell-based; details: MKN-45, 72 h
NUGC-4 [3] = assay: Cytotoxicity against KK-LC-1-positive human NUGC-4 cells incubated for 72 hrs by CCK-8 assay; format: functional, cell-based; details: NUGC-4, 72 h
HGC-27 = assay: Cytotoxicity against KK-LC-1-negative human HGC-27 cells incubated for 72 hrs by CCK-8 assay; format: functional, cell-based; details: HGC-27, 72 h
MKN-45 [4] = assay: Antitumor activity against KK-LC-1-positive human MKN-45 cells xenografted in male BALB/c nude mouse assessed as tumor volume; format: functional
MKN-45 [5] = assay: Antitumor activity against KK-LC-1-positive human MKN-45 cells xenografted in male BALB/c nude mouse assessed as reduction in tumor growth; format: functional

CC[C@H](C)[C@@H]([C@@H](CC(=O)N1CCC[C@H]1[C@H](OC)[C@@H](C)C(=O)N[C@H](C)[C@@H](O)c1ccccc1)OC)N(C)C(=O)[C@@H](NC(=O)[C@@H](NC)C(C)C)C(C)C (H-[NMeV]V[Dil][Dolaproine]-X1) showed an Activity (NUGC-4 [1]) of 28.75, an IC50 (MKN-45 [2]) of 10.7 nM and an IC50 (NUGC-4 [3]) of 11 nM. For the same molecule, the IC50 (HGC-27) was 7.18 nM, the Activity (MKN-45 [4]) was 602.1 mm3 and the Activity (MKN-45 [5]) was “Active”.
